Among the data in paper PMC2723102, “The interactome of the amyloid β precursor protein family members is shaped by phosphorylation of their intracellular domains” (Molecular Neurodegeneration, 2009) are Kd values, retold here.

Type in all cases: binding
In one experiment the target is T1, GST-Grb2 (Homo sapiens, UniProt P62993).
T1 construct: All these targets analyzed contain either an SH2 or a PTB domain fused to GST; made in house; host or cells: bacterial cultures
As to the kind of experiment: BIAcore surface plasmon resonance, GST-Grb2. The conditions noted are these: SPR, BIAcore 3000, strep-tag peptide amine coupled to CM-5 chip (4500–7500 RU), analyte GST-Grb2. An excerpt:
(§1) Binding of GST and GST-Grb2, NUMB p71, and X11β domains to strep-tag AID peptide or different phosphorylation forms was monitored by surface plasmon resonance (SPR) on a BIAcore 3000 machine (BIAcore, Neuchâtel, Switzerland). The strep-tag peptide and different phosphorylation forms of AID peptides were covalently amine coupled to a CM-5 sensor chip by use of the amine covalent coupling. An immobilization level of 4500–7500 resonance units was obtained. A nonderivatized flowcell serves as a reference surface. Interactions between GST and GST-Grb2, NUMB p71, and X11β to strep-tag peptides were determined by the change in signal measured in RU.

The target of a further experiment is T2, GST-X11β (Homo sapiens, UniProt Q99767).
T2 construct: All these targets analyzed contain either an SH2 or a PTB domain fused to GST; made in house; host or cells: bacterial cultures
T2 sequence (Q99767 368-555 limits assumed): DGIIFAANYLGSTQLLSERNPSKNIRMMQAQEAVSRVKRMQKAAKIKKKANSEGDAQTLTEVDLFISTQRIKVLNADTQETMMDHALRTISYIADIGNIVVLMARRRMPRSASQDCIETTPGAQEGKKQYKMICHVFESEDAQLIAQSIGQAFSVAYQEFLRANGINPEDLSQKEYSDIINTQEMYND
Description: BIAcore surface plasmon resonance, GST-X11β. To be noted: SPR, BIAcore 3000, strep-tag peptide amine coupled to CM-5 chip (4500–7500 RU), analyte GST-X11β.
Source text: as §1

For another experiment, the target named is T3, GST-NUMB-p71 (Homo sapiens, UniProt P49757).
T3 construct: All these targets analyzed contain either an SH2 or a PTB domain fused to GST; made in house; host or cells: bacterial cultures
T3 sequence (P49757 33-182 isoform P49757-3): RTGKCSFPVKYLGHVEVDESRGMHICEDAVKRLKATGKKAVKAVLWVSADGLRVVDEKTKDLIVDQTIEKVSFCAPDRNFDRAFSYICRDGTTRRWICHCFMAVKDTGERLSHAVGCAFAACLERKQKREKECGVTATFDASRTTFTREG
Description: BIAcore surface plasmon resonance, GST-NUMB-p71. To be noted: SPR, BIAcore 3000, strep-tag peptide amine coupled to CM-5 chip (4500–7500 RU), analyte GST-NUMB-p71.
Source text: as §1
(In general: In SPR one partner is held on a chip, and binding of the other changes the refractive index at the surface.)

T1 sequence (P62993 60-152 limits assumed): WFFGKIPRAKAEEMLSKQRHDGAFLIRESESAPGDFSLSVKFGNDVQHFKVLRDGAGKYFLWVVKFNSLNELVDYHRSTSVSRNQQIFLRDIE

Broadly, the Kd is the equilibrium constant for the complex coming apart. High values mean weaker binding, low ones tighter binding. With `CC[C@H](C)[C@H](NC(=O)[C@H](CO)NC(=O)[C@@H](NC(=O)[C@H](Cc1ccc(O)cc1)NC(=O)[C@H](CCC(N)=O)NC(=O)[C@H](CCCCN)NC(=O)[C@H](CCCCN)NC(=O)[C@H](CCCCN)NC(=O)[C@H](CC(C)C)NC(=O)[C@H](CCSC)NC(=O)[C@@H](N)C(C)C)[C@@H](C)O)C(=O)N[C@@H](Cc1c[nH]cn1)C(=O)N[C@@H](Cc1c[nH]cn1)C(=O)NCC(=O)N[C@H](C(=O)N[C@H](C(=O)N[C@@H](CCC(=O)O)C(=O)N[C@H](C(=O)N[C@@H](CC(=O)O)C(=O)N[C@@H](C)C(=O)N[C@@H](C)C(=O)N[C@H](C(=O)N[C@H](C(=O)N1CCC[C@H]1C(=O)N[C@@H](CCC(=O)O)C(=O)N[C@@H](CCC(=O)O)C(=O)N[C@@H](CCCNC(=N)N)C(=O)N[C@@H](Cc1c[nH]cn1)C(=O)N[C@@H](CC(C)C)C(=O)N[C@@H](CO)C(=O)N[C@@H](CCCCN)C(=O)N[C@@H](CCSC)C(=O)N[C@@H](CCC(N)=O)C(=O)N[C@@H](CCC(N)=O)C(=O)N[C@@H](CC(N)=O)C(=O)NCC(=O)N[C@@H](Cc1ccc(OP(=O)(O)O)cc1)C(=O)N[C@@H](CCC(=O)O)C(=O)N[C@@H](CC(N)=O)C(=O)N1CCC[C@H]1C(=O)N[C@H](C(=O)N[C@@H](Cc1ccc(O)cc1)C(=O)N[C@@H](CCCCN)C(=O)N[C@@H](Cc1ccccc1)C(=O)N[C@@H](Cc1ccccc1)C(=O)N[C@@H](CCC(=O)O)C(=O)N[C@@H](CCC(N)=O)C(=O)N[C@@H](CCSC)C(=O)N[C@@H](CCC(N)=O)C(=O)N[C@@H](CC(N)=O)C(=O)O)[C@@H](C)O)[C@@H](C)OP(=O)(O)O)C(C)C)C(C)C)C(C)C)C(C)C` [AIDpTpY], the Kd on GST-Grb2 came out at 0.413 nM; at GST-X11β, 13.1 nM.
For the molecule `CC[C@H](C)[C@H](NC(=O)[C@H](CO)NC(=O)[C@@H](NC(=O)[C@H](Cc1ccc(O)cc1)NC(=O)[C@H](CCC(N)=O)NC(=O)[C@H](CCCCN)NC(=O)[C@H](CCCCN)NC(=O)[C@H](CCCCN)NC(=O)[C@H](CC(C)C)NC(=O)[C@H](CCSC)NC(=O)[C@@H](N)C(C)C)[C@@H](C)O)C(=O)N[C@@H](Cc1c[nH]cn1)C(=O)N[C@@H](Cc1c[nH]cn1)C(=O)NCC(=O)N[C@H](C(=O)N[C@H](C(=O)N[C@@H](CCC(=O)O)C(=O)N[C@H](C(=O)N[C@@H](CC(=O)O)C(=O)N[C@@H](C)C(=O)N[C@@H](C)C(=O)N[C@H](C(=O)N[C@H](C(=O)N1CCC[C@H]1C(=O)N[C@@H](CCC(=O)O)C(=O)N[C@@H](CCC(=O)O)C(=O)N[C@@H](CCCNC(=N)N)C(=O)N[C@@H](Cc1c[nH]cn1)C(=O)N[C@@H](CC(C)C)C(=O)N[C@@H](CO)C(=O)N[C@@H](CCCCN)C(=O)N[C@@H](CCSC)C(=O)N[C@@H](CCC(N)=O)C(=O)N[C@@H](CCC(N)=O)C(=O)N[C@@H](CC(N)=O)C(=O)NCC(=O)N[C@@H](Cc1ccc(OP(=O)(O)O)cc1)C(=O)N[C@@H](CCC(=O)O)C(=O)N[C@@H](CC(N)=O)C(=O)N1CCC[C@H]1C(=O)N[C@H](C(=O)N[C@@H](Cc1ccc(O)cc1)C(=O)N[C@@H](CCCCN)C(=O)N[C@@H](Cc1ccccc1)C(=O)N[C@@H](Cc1ccccc1)C(=O)N[C@@H](CCC(=O)O)C(=O)N[C@@H](CCC(N)=O)C(=O)N[C@@H](CCSC)C(=O)N[C@@H](CCC(N)=O)C(=O)N[C@@H](CC(N)=O)C(=O)O)[C@@H](C)O)[C@@H](C)O)C(C)C)C(C)C)C(C)C)C(C)C` [AIDpY], the Kd on GST-Grb2 is 2.57 nM; on GST-NUMB-p71, 997 nM.
